The values that follow are results of earlier work, collected in patent publication US10888576B2, “Composition of HMB and ATP and methods of use” (Metabolic Technologies, Inc., priority 2018, dated 2021).

One series has as its system skeletal muscle. The note with it: acute ingestion of 2.4 grams; cited from earlier work.
For series [1] the following is noted: after administration; cited from earlier work.

For `CC(C)(O)CC(=O)O` [HMB-FA, β-hydroxy-β-methylbutyric acid], in the series with skeletal muscle, the “change in protein breakdown” value is given as −56% and the “change in skeletal muscle protein synthesis” value was “+70%”. In series [1], the “plasma levels of HMB compared with calcium HMB” value is “approximately double the plasma levels of HMB” and the “time to plasma levels compared with calcium HMB” value is “about one-quarter the time”.
